According to patent US20240335569A1, “FIBROBLAST ACTIVATION PROTEIN INHIBITORS AND USE THEREOF” (3 B PHARMACEUTICALS GMBH, priority 2021, published 2024):

Legend:
[1] = tested on: HT-29 cells; test: Stability in the presence of tumor cells (HT-29), FAP IC50 of supernatants; assay type: in vitro ADME, human; conditions: for pIC50 (incubation in cell medium w/o HT-29) / pIC50 (incubation in the presence of HT-29 cells): 10 μM compound, supernatant tested on recombinant human FAP; for pIC50 (incubation in cell medium w/o HT-29): 24 hours at 37° C. in control wells without cells; for pIC50 (incubation in the presence of HT-29 cells): 24 hours at 37° C. with HT-29 cells
Experimental: Cells were cultured in McCoys's 5A modified medium (Biochrom, #F1015) including 10% fetal bovine serum (FBS), 2 mM L-glutamine, 100 U/ml penicillin and 100 μg/mL streptomycin (growth medium). […] 1 mL of the cell suspension were seeded in 24-well plates and incubated overnight at 37° C. and 5% CO2. The next day, cells were washed twice and growth medium was exchanged against DMEM without phenol red (Biochrom, #F0475) including 2 mM L-glutamine. Test compound was diluted in DMEM without phenol red (Biochrom, #F0475) including 2 mM L-glutamine. 400 μL of a 10 μM solution of the test compound was incubated for 24 hours at 37° C. and 5% CO2 in the presence of cells as well as in control wells (without cells) of the same 24-well plate.
25 μL of a 30 μM substrate solution, diluted in assay buffer, was added. All solutions were equilibrated at 37° C. prior to use. […] RFU/sec was calculated by SoftMax Pro software and plotted against test compound concentration. Four parameter logistic (4PL) curve fitting and IC50/pIC50 calculations were performed using GraphPad Prism 9.1 software.
The stability of exemplary compounds was further assessed in the presence of a variety of human cell lines from different tissue origins. […] Compounds were diluted in DMEM without phenol red (Biochrom, #F0475) including 2 mM L-glutamine. 400 μL of a 10 μM solution of the test compound was incubated for 24 hours at 37° C. and 5% CO2 in the presence of cells as well as in control wells (without cells) of the same 24-well plate. IC50/pIC50 determination of the supernatants was performed as described above.

[2] = biological target: Recombinant human DPP4 (Homo sapiens (Human), UniProt P27487); test: DPP4 protease activity assay; assay type: biochemical
Sequence of Recombinant human DPP4 (P27487 whole entry): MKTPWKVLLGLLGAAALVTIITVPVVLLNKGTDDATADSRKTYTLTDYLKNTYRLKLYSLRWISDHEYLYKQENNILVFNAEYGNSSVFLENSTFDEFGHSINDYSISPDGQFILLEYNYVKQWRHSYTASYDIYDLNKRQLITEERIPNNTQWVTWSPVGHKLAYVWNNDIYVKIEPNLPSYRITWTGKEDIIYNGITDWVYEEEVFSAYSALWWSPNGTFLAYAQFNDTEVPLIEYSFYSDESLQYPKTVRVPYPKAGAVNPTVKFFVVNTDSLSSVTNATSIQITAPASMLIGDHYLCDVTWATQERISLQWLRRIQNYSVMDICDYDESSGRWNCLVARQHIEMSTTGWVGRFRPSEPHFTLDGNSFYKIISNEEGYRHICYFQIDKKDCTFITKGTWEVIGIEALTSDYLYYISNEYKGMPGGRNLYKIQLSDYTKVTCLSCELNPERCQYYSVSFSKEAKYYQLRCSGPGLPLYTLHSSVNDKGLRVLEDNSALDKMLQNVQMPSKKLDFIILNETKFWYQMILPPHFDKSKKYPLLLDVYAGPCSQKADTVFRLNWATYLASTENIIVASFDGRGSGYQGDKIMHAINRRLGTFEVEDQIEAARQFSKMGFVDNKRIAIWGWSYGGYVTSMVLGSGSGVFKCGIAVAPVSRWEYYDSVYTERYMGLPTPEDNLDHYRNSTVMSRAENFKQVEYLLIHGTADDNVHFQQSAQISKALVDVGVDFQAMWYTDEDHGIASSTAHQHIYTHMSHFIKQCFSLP
Experimental: The PREP activity assay was performed using the FACS buffer (PBS including 1% FBS, Sigma-Aldrich, Cat #D8537). […] The DPP4 activity assay was performed in DPP assay buffer (25 mM Tris, pH 8.0). […] Four parameter logistic (4PL) curve fitting and pIC50 calculations were performed using ActivityBase software.

[3] = biological target: T1, Human recombinant FAP (Homo sapiens (Human), UniProt Q12884); test: FAP protease activity assay (human), FRET-based; assay type: biochemical; conditions: recombinant human FAP, FRET protease activity
Experimental: In order to determine the inhibitory activity a FRET-based FAP protease activity assay was established.
Four parameter logistic (4PL) curve fitting and pIC50 calculations were performed using ActivityBase software (IDBS).
Target sequence in this assay (Q12884 26-760): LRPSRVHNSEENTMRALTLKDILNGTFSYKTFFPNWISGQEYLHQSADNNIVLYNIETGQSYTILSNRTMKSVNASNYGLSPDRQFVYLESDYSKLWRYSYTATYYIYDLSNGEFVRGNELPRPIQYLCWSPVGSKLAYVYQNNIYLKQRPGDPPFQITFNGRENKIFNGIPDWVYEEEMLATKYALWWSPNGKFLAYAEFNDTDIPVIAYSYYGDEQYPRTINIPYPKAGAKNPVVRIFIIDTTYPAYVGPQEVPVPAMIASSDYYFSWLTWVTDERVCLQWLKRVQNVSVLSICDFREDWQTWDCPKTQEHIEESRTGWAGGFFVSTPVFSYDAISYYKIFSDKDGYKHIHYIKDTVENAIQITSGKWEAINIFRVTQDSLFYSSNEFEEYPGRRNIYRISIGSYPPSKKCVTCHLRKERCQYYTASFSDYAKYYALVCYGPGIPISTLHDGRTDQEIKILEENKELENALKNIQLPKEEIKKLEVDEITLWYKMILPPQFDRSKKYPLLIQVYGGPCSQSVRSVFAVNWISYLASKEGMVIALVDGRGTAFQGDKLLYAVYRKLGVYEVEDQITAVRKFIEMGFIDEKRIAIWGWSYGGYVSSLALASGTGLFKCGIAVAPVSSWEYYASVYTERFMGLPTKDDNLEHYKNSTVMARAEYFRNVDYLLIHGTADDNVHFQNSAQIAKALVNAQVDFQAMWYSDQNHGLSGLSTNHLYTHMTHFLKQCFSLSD

[4] = biological target: FAP-expressing human WI-38 fibroblasts (Homo sapiens (Human), UniProt Q12884); test: FACS binding assay (competitive, Cy5-labeled 3BP-2935); conditions: FAP-expressing WI-38 fibroblasts
Sequence of FAP-expressing human WI-38 fibroblasts (Q12884 whole entry): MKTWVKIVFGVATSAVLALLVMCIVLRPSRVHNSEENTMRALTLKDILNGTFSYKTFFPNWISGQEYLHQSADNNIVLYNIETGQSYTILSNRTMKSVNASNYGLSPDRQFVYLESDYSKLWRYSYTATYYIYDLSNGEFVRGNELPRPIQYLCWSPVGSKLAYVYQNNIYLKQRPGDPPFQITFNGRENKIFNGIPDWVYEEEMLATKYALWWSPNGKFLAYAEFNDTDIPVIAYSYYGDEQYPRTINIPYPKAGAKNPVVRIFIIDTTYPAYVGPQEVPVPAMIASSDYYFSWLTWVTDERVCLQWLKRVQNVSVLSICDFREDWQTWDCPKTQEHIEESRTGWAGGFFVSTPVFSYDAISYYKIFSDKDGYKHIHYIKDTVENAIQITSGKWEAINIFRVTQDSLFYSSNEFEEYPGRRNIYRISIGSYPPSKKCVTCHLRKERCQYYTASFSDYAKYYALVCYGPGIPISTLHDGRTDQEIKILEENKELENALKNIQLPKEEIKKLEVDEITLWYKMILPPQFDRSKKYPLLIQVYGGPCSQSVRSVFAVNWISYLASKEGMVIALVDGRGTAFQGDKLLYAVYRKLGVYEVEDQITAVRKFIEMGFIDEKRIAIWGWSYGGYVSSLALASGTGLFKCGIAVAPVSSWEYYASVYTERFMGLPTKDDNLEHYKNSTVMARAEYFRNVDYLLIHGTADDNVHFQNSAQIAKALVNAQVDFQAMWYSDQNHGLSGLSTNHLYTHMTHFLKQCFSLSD
Experimental: In order to determine binding of compounds according to the present invention to FAP-expressing cells, a competitive FACS binding assay was established. […] Cells were diluted in FACS buffer to a final concentration of 100.000 cells per ml and 200 μl of the cell suspension are transferred to a u-shaped non-binding 96-well plate (Greiner). […] Cell were washed twice with FACS buffer (see above) and resuspended in 200 μl FACS buffer. Cells were analyzed in an Attune NxT flow cytometer (Thermo Fisher Scientific). Median fluorescence intensities (Cy5 channel) were calculated by Attune NxT software and plotted against test compound concentrations. Four parameter logistic (4PL) curve fitting and pIC50 calculations were performed using ActivityBase software.

[5] = biological target: T1, Human recombinant FAP; test: Surface plasmon resonance assay (Biacore T200, SCK); assay type: binding; conditions: for HL [min] (Biacore): SPR dissociation half-life; for pKD (Biacore): SPR
Experimental: Surface plasmon resonance studies were performed using a Biacore™ T200 SPR system (Cytiva, formerly GE Healthcare). Briefly, polarized light is directed towards a gold-labeled sensor surface, and minimum intensity reflected light is detected. The angle of reflected light changes as molecules bind and dissociate. […] Test compounds are contacted with the loaded surface, and a real-time interaction profile with the FAP ligand is recorded in a sensorgram. In real-time, the association and dissociation of a binding interaction is measured, enabling calculation of association and dissociation rate constants and the corresponding affinity constants. Importantly, a background response is generated due to the difference in the refractive indices of the running and sample buffers, as well as unspecific binding of the test compounds to the flow cell surface. This background is measured and subtracted by running the sample on a control flow cell coated with the same density of capture antibody in the absence of immobilized FAP. Furthermore, baseline drift correction of the binding data is performed, which is caused by slow dissociation of the captured FAP from the immobilized antibody. This drift is measured by injecting running buffer through a flow cell with the antibody and FAP immobilized to the sensor surface.
Biacore™ CM5 sensor chips were used. […] A 150 μL aliquot was transferred into plastic vials and placed into the sample rack of the Biacore™ T200 instrument. Amine Coupling Kit Reagent solutions were transferred into plastic vials and placed into the sample rack: 90 μL of 0.4 M 1-ethyl-3-(3-dimethylaminopropyl) carbodiimide (EDC), and 90 μL of 0.1 M N-hydroxysuccinimide (NHS). A 130 μL aliquot of 1 M ethanolamine-HCl, pH 8.5, was transferred into plastic vials and placed into the sample rack. The Biacore™ liquid system was set-up as follows: Separate bottles containing distilled water (1 L), Running Buffer (500 mL), as well as an empty bottle for waste were placed onto the buffer tray. A preinstalled program for immobilization was used, with an immobilization level of 7000 RU. Immobilization was performed at 25° C. The immobilization procedure of anti-FAP antibodies was performed, as described in the Table 4.
Human recombinant FAP was diluted in Running Buffer to a final concentration of 20 μg/mL. A 100 μL aliquot of human FAP-Working-Solution was transferred into plastic vials and placed into a sample rack. A 0.5 mM Compound-Stock-Solution was prepared by dissolving each compound in DMSO. For each test compound, Compound-Stock-Solutions were diluted in Running Buffer (HBST) at 500 nM and further diluted with HBST-DMSO Buffer (0.1% DMSO). SPR binding analyses for binary complexes were performed in SCK mode at 25° C. Following three SCK measurements, a baseline drift was assessed by injecting running buffer through a flow cell, with the antibody and FAP immobilized to the sensor surface.
For each test compound, SPR raw data in the form of resonance units (RU) were plotted as sensorgrams using the Biacore™ T200 control software. The signal from the blank sensorgram was subtracted from that of the test compound sensorgram (blank corrected). The blank corrected sensorgram was corrected for baseline drift by subtracting the sensorgram of a SCK run without the test compound (running buffer only). The association rate (kon), dissociation rate (koff), dissociation constant (KD), and t1/2 were calculated from Blank-normalized SPR data using the 1:1 Langmuir binding model from the Biacore™ T200 evaluation software. Raw data and fit results were imported as text files in IDBS. The pKD value (negative decadic logarithm of dissociation constant) was calculated in the IDBS excel template.
Target sequence in this assay (Q12884 whole entry): as above

Compound	Residual activity after incubation with HT-29 cells for 24 hours (%) [1] [%]	pIC50 (Activity) [3]	pIC50 (FACS) [4]	HL [min] (Biacore) [5]	further results
N#C[C@@H]1CCCN1C(=O)CNC(=O)c1ccnc2ccccc12 [Compound 3BP-2762]	63	–	–	–	pIC50 (incubation in cell medium w/o HT-29) [1]: 8.4; pIC50 (DPP4) [2]: <6
Cn1ncnc1C(=O)[C@@H]1CCCN1C(=O)CNC(=O)c1ccnc2ccccc12 [Compound 3BP-3207]	–	6.5	<6	–	–
N#C[C@@H]1CC(F)(F)CN1C(=O)CNC(=O)c1ccnc2ccccc12 [Compound 3BP-3232]	13	–	–	–	pIC50 (incubation in the presence of HT-29 cells) [1]: 8.0
CS(=O)(=O)c1ccc(-c2ccc3c(C(=O)NCC(=O)N4CC(F)(F)C[C@H]4C#N)ccnc3c2)cc1 [Compound 3BP-3236]	–	–	–	37	–
O=C(O)CN1CCN(CC(=O)O)CCN(CC(=O)N2CCN(CCCOc3ccc4nccc(C(=O)NCC(=O)N5CC(F)(F)C[C@H]5C(=O)c5nc6ccccc6o5)c4c3)CC2)CCN(CC(=O)O)CC1 [Compound 3BP-3412]	>95	–	–	57	pIC50 (incubation in the presence of HT-29 cells) [1]: 8.6
N#C[C@@H]1CC(F)(F)CN1C(=O)CNC(=O)c1ccnc2ccc(-c3ccc(S(=O)(=O)CCCNC(=O)CN4CCN(CC(=O)O)CCN(CC(=O)O)CCN(CC(=O)O)CC4)cc3)cc12 [Compound 3BP-3467]	13	–	–	>150	pIC50 (incubation in cell medium w/o HT-29) [1]: 9.3; pIC50 (incubation in the presence of HT-29 cells) [1]: 8.4; pKD (Biacore) [5]: >10.5
CC(C)(C)OC(=O)N1CC[N+]([O-])(CCCOc2ccc3nccc(C(=O)NCC(=O)N4CC(F)(F)C[C@H]4C#N)c3c2)CC1 [Compound 3BP-3577]	–	9	8.6	–	–
CC(C)(C)OC(=O)N1CC[N+]([O-])(CCCOc2ccc3c(c2)c(C(=O)NCC(=O)N2CC(F)(F)C[C@H]2C#N)cc[n+]3[O-])CC1 [Compound 3BP-3578]	–	8.6	8	–	–
CC(C)(C)OC(=O)N1CCN(CCCOc2ccc3c(c2)c(C(=O)NCC(=O)N2CC(F)(F)C[C@H]2C#N)cc[n+]3[O-])CC1 [Compound 3BP-3579]	–	8.6	8	–	–
CC(C)(C)OC(=O)N1CCN(CCCOc2ccc3nccc(C(=O)NCC(=O)N4CC(F)(F)C[C@H]4C#N)c3c2)CC1 [Compound 3BP-3580]	–	8.8	8.4	–	–
N#C[C@@H]1CC(F)(F)CN1C(=O)CNC(=O)c1ccnc2ccc(-c3ccc(C(=O)NCCCNC(=O)CN4CCN(CC(=O)O)CCN(CC(=O)O)CCN(CC(=O)O)CC4)cc3)cc12 [Compound 3BP-3621]	–	–	–	>150	pKD (Biacore) [5]: >10.5
N#C[C@@H]1CC(F)(F)CN1C(=O)CNC(=O)c1ccnc2ccc(-c3ccc(C(=O)NCCN4CCN(C(=O)CN5CCN(CC(=O)O)CCN(CC(=O)O)CCN(CC(=O)O)CC5)CC4)cc3)cc12 [Compound 3BP-3631]	–	–	–	>150	pKD (Biacore) [5]: >10.5
